Reference: patent US8993725B2, “Notch-based fusion proteins and uses thereof” (The Trustees of Columbia University in the City of New York, priority 2004, dated 2015)
Entries after “also recorded” stand apart in the source; their conditions may differ.

Columns and labels:
Type in all cases: cell-based, Human
[1] = system: Ad-N1IC-transduced HUVEC; assay: Notch-induced budding of Ad-N1IC-transduced HUVEC on gel; conditions: for Effect of receptor tyrosine kinase inhibitors on budding of Ad-N1IC-HUVEC: inhibitors at 1 μM, Ad-N1IC 40 MOI, complete medium
Method: HUVEC were transduced with either Ad-LacZ or Ad-N1IC at 40 MOI. FIGS. 23A-23C show the effect of inhibitors for receptor tyrosine kinases on Notch-induced HUVEC budding. FIG. 23A is a photograph of budding of Ad-N1IC-transduced HUVEC treated with PD166866, ZD1893 at 1 μM and SU5416 at 0.5 μM. […] FIGS. 23F-G show promotion of Notch-induced HUVEC budding with PlGF stimulation. Ad-N1IC-transduced HUVEC were cultured on collagen gel with SFM, instead of complete medium, in the absence or presence of 50 ng/ml PlGF. […] FIGS. 23H-I show the effect of Flt-1 siRNA transfection on Flt1 expression. Ad-N1IC-transduced HUVEC were transfected with 200 pmol of either control (CT) or Flt-1 siRNA. […] Ad-N1IC-transduced HUVEC were transfected with either 100 or 200 pmol of siRNA and cultured on collagen gel for 2 days.
Either Ad-LacZ or Ad-N1IC-HUVEC at a MOI of 40 pfu/cell were cultured on collagen gel for 5 days in the absence or presence of GM6001 at 50 μm.
To test whether Notch signaling is down-stream of VEGF, we evaluated three distinct inhibitors for receptor tyrosine kinases, including VEGFR on N1IC-induced HUVEC budding, because three growth factors existed in complete medium (FIG. 23A-C). […] Thus, we examined whether activation of Notch signaling affected Flt1/VNGFR1 expression in HUVEC, because SU5416 inhibits both Flt1 and Flk1 kinase activity (15). […] PlGF increased the number of Ad-N1IC-HUVEC buds by 150%, compared to the absence of PlGF (FIG. 23F). Moreover, PlGF increased HUVEC buds containing multiple filopodia by 250% (FIG. 23G).

[2] = system: Notch signaling (CBF1 promoter activity) in HUVEC; assay: VEGF-induced Notch signaling, CBF1 promoter / CSL-luciferase reporter activity in HUVEC; conditions: Ad-VEGF-transduced HUVEC, 20 MOI
Method: To determine VEGF-induced Notch signaling, HUVEC which were infected with adenovirus were used. HUVEC plated 1-day prior in 6 well plates at 8.0×10^5 were infected with either Ad-LacZ as control or Ad-VEGF at indicated m.o.i. in the presence or absence of Ad-N1ECD/Fc. Two days after infection, infected HUVEC were re-seeded into 24-well plate at 1.5×10^5 cell in triplicate and cultured for 24 hours, and then transfected with 12.5 ng pRL-SV40 (Promega) and 137.5 ng pGA981-6 using Effectene transfection reagent (Qiagen). Cells were harvested either 1 or 2 days post-transfection and luciferase activity was determined by using the Dual-Luciferase® Reporter Assay System (Promega).
One can measure Notch signaling function by measuring transcriptional activity of CBF1 promoter, which is activated by binding of Notch-IC to CBF1. We measured CBF1 promoter activity in HUVEC which was infected with adenovirus encoding VECF-165 at different MOI (FIG. 6). Induction of CBF1 promoter was clearly detected in Ad-VEGF-infected HUVEC, compared to Ad-LacZ-infected cells in the MOI dependent manner. […] Thus VEGF induced Notch signaling activity.

[3] = system: HUVEC; assay: HUVEC proliferation (CCK-8 kit); conditions: SFM with 1% FBS, 4 days
Method: These Figures show proliferation of Ad-VEGF165-transduced HUVEC. HUVEC were transduced with Ad-VEGF165 at the indicated dosages. Ad-LacZ was also co-infected to make the same total amount of adenovirus at a MOI of 40 pfu/cell. HUVEC were suspended in SFM supplemented with 1% FBS and then plated at 1×10^4 cells/well in 24-well multi-well plates with 0.4 ml of medium. After 4 days, cell numbers were determined using the CCK-8 kit and the results are indicated as the ratio of cell numbers determined to the number of control cells, which were transduced with Ad-GFP at a MOI of 40 pfu/cell. […] Ad-VEGF-transduced HUVEC were treated with SU5416 at the indicated dosages.
These Figures show the effect of alteration of Notch signaling on cell proliferation. The cells were transduced with the indicated adenoviruses. Ad-GFP was also co-infected to make the same total amount of adenovirus at a MOI of 60 pfu/cell. After 4 days, cell numbers were determined using the CCK-8 kit and results are indicated as the ratio of cell numbers determined to the number of control cells, which were transduced with AD-GFP at MOI of 60 pfu/cell. […] Transduced HUVEC were suspended in complete medium and then plated at 1×10^4 cells/well in 24-well multiwell plates with 0.4 ml of indicated medium (□: Ad-N1IC; ▪: Ad-N1ECDFc). […]

Molecule: CNC(=O)[C@H](Cc1c[nH]c2ccccc12)NC(=O)[C@@H](CC(=O)NO)CC(C)C [GM6001]
- Effect on budding of Ad-N1IC-HUVEC on collagen gel ([1]; GM6001 at 50 μm, 5 days): inhibition of budding; also recorded: clearly decreased budding
- Effect on budding of Ad-N1IC-HUVEC on fibrin gel ([1]; data not shown): clearly decreased budding

Molecule: COc1cc2ncnc(Nc3ccc(F)c(Cl)c3)c2cc1OCCCN1CCOCC1 [ZD1893]
- Effect of receptor tyrosine kinase inhibitors on budding of Ad-N1IC-HUVEC [1]: Neither PD166866 or ZD1893 affected budding

Molecule: Cc1cc(C)c(/C=C2\C(=O)Nc3ccccc32)[nH]1 [SU5416, reference compound]
- Effect of compound treatment on VEGF-induced CSL-luciferase reporter activity [2]: decreased VEGF-induced CSL-luciferase reporter activity
- Effect of receptor tyrosine kinase inhibitors on budding of Ad-N1IC-HUVEC [1]: clearly inhibited
- Dose-dependency of effect on budding versus viability of Ad-N1IC-HUVEC ([1]; lower concentrations): selectively inhibited budding of Ad-N1IC-HUVEC with less reduction of viability at lower concentrations
- Proliferation of Ad-VEGF-transduced HUVEC [3]: inhibitory effect

Molecule: COc1cc(OC)cc(-c2cc3cnc(N)nc3nc2NC(=O)NC(C)(C)C)c1 [PD166866]
- Effect of receptor tyrosine kinase inhibitors on budding of Ad-N1IC-HUVEC [1]: Neither PD166866 or ZD1893 affected budding

B1: PlGF: a selective ligand for Flt1 (protein, UniProt P49763 19-221, looked up)
Placenta growth factor: LPAVPPQQWALSAGNGSSEVEVVPFQEVWGRSYCRALERLVDVVSEYPSEVEHMFSPSCVSLLRCTGCCGDENLHCVPVETANVTMQLLKIRSGDRPSYVELTFSQHVRCECRHSPGRQSPDMPGDFRADAPSFLPPRRSLPMLFRMEWGCALTGSQSAVWPSSPVPEEIPRMHPGRNGKKQQRKPLREKMKPERCGDAVPRR
- Increase of HUVEC buds containing multiple filopodia ([1]; 50 ng/ml PlGF, SFM, collagen gel): 250%
- Increase of the number of Ad-N1IC-HUVEC buds ([1]; 50 ng/ml PlGF, SFM, collagen gel, compared to the absence of PlGF): 150%
